Source: US10544092B2 (priority 2015, dated 2020)

test system: melon bacterial fruit blotch; assay: control of melon bacterial fruit blotch (seed soaking); assay type: in vivo; conditions: dosage 800 mg/L, after 2 weeks
Protocol: Melon bacterial fruit blotch: The testing compound is dissolved in a small amount of DMF and diluted with water to the desired concentration. The pathogenic bacteria in the stable growth phase is mixed with the testing solution. After melon seeds (accelerating germination) soaked in the solution containing pathogenic bacteria and compound for 0.5 hour, the seeds are sown in earthworm soil cup and then transferred into a greenhouse to allow disease to develop. After 2 weeks, The activity of the compound is evaluated based on germination or growth of control treatment

Molecule | control against melon bacterial fruit blotch [%]
N#CC(C#N)=NOCc1cccc(Br)c1 [Compound 9] | 100
N#CC(C#N)=NOCc1ccc(Cl)c(Cl)c1 [Compound 59] | 100
N#CC(C#N)=NOCc1ccc(F)c(F)c1 [Compound 83] | 100

test system: soft rot of chinese cabbage; assay: control of soft rot of chinese cabbage (cut leaves); assay type: in vivo; conditions: dosage 400 mg/L, 48 hours
Protocol: Soft rot of chinese cabbage: Chinese cabbage leaves are cut into 2 cm square and placed on the double filter paper in a petri dish. The testing compound is dissolved in DMF and diluted with water to the desired concentration. The testing solution is sprayed onto the surface of the cabbage leaf and dried in a fume hood. The surface of cabbage leaf is pierced using inoculation needle. A spore suspension (5 μl) of the chinese cabbage soft rot bacteria in the stable growth phase is inoculated onto the breakage of leaves, disease development is allowed to progress in a growth cabinet under dark condition for 48 hours. The activity of the compound is evaluated based on germination or growth of control treatment.

Molecule | control against soft rot of chinese cabbage [%]
N#CC(C#N)=NOCc1cccc(Br)c1 [Compound 9] | 100
COc1ccc(CON=C(C#N)C#N)cc1 [Compound 19] | 100
N#CC(C#N)=NOCc1ccc([N+](=O)[O-])cc1 [Compound 34] | 100
N#CC(C#N)=NOCc1cccc(C#N)c1 [Compound 36] | 100
N#CC(C#N)=NOCc1ccc(C#N)cc1 [Compound 37] | 100
N#CC(C#N)=NOCc1ccc(Cl)c(Cl)c1 [Compound 59] | 100
N#CC(C#N)=NOCc1ccc(F)c(F)c1 [Compound 83] | 100

test system: bacterial leaf streak of rice (Xanthomonas oryzae pv. oryzicola); assay: not given; assay type: in vivo; conditions: field trial, 400 g a.i./hm^2, a week after 3 spray applications

Molecule | Disease control (%) repeat I [%] | Disease control (%) repeat II [%] | Disease control (%) repeatIII [%]
N#CC(C#N)=NOCc1ccc(Cl)c(Cl)c1 [Compound 59] | 56.96 | 58.37 | 51.24
thiazole zinc [reference compound] | 39.21 | 37.24 | 37.88

same assay, conditions: field trial, 400 g a.i./hm^2, average of repeats I-III

Molecule | Disease control (%) average [%]
N#CC(C#N)=NOCc1ccc(Cl)c(Cl)c1 [Compound 59] | 55.52
thiazole zinc [reference compound] | 38.11
